Assay results reported in patent publication US20260022142A1, “MACROCYCLIC IMMUNOMODULATORS” (Bristol-Myers Squibb Company, priority 2022, published 2026).
Numbered stars: 1 amine (or outer) side, 2 acyl side, 3 side chain; on linkers, the order of the positions; unused ones are H or OH. Bridge positions count the residues as written; N and C are the ends. Square brackets hold non-standard residues; d marks the D form. Peptide text beside a SMILES is read from it. * marks the point of attachment. ξ: configuration not given here. Bip = N[C@@H](Cc1ccc(-c2ccccc2)cc1)C(=O)O; Phe(3-Me) = Cc1cccc(C[C@H](N)C(=O)O)c1; γGlu = O=C(O)[C@H](CCC(=O)[*:2])N[*:1]; Cha = N[C@@H](CC1CCCCC1)C(=O)O; Thr(3ξ) = CC(O)[C@H](N)C(=O)O; Carboxymethyl = O=C(O)C*; Orn = NCCC[C@H](N)C(=O)O; Aun = NCCCCCCCCCCC(=O)O; Dab = NCC[C@H](N)C(=O)O; Dap = NC[C@H](N)C(=O)O; AEEA = NCCOCCOCC(=O)O

Molecular target: T1, PD-1/PD-L1 interaction (PE-labeled human PD-L1-Ig binding to Jurkat cell line over-expressing human PD-1) (Homo sapiens, UniProt Q15116)
T1 construct: expressed in transfected cells; host or cells: Jurkat
Assay: Jurkat-PD-1 Cell Binding High-Content Screening Assay (CBA)
Assay type: cell-based
Settings: Jurkat cell line over-expressing human PD-1; PE-labeled PD-L1-Ig 20 nM final; read-out: Jurkat hPD1-PDL1 IC50
Summary of the method: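 Binding of fluorescent PD-L1-Ig (phycoerythrin on Ig tag, 20 nM final, 1 h) measured by high-content imaging of fixed, Hoechst-counterstained Jurkat-hPD-1 cells. Compound added 2 h at 37° C beforehand, in DMEM with 10% fetal calf serum.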

T1 sequence (Q15116 25-288): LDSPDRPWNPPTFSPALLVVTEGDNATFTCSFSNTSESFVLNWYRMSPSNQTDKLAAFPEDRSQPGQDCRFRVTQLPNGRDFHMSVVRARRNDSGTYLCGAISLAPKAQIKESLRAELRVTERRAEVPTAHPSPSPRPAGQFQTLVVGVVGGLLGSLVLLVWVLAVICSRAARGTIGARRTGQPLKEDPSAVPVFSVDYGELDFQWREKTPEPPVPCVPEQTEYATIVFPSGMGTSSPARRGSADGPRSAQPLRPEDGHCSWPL

SMILES | IC50
CC(C)C[C@H]1NC(=O)[C@H](CCCN)NC(=O)[C@H](Cc2ccc(O)cc2)NC(=O)[C@H](Cc2ccc(-c3ccccc3)cc2)NC(=O)[C@H](Cc2ccc(O)cc2)NC(=O)[C@H](Cc2c[nH]c3ccccc23)NC(=O)[C@H](CC(=O)O)NC(=O)[C@H](Cc2ccc(OCC(=O)O)cc2)NC(=O)[C@H](CN)NC(=O)CSC[C@@H](C(=O)N[C@@H](CCN)C(=O)NCCCCCCCCCCC(=O)O)NC(=O)[C@H](CCCCN)NC(=O)[C@H](C(C)O)NC(=O)[C@H](CC2CCCCC2)NC(=O)[C@H](CCN)NC1=O (stereo partly drawn) [Compound 3657] ({CH2CO}-[Dap]Y(Carboxymethyl)DWY[Bip]Y[Orn][dL][Dab][Cha][Thr(3ξ)]KC[Dab][Aun]-OH; thioether N-14) | 0.121 µM
CC(C)C[C@@H]1NC(=O)[C@H](Cc2c[nH]c3ccccc23)NC(=O)[C@H](CC(=O)O)NC(=O)[C@H](Cc2ccc(OCC(=O)O)cc2)NC(=O)[C@H](CN)NC(=O)CSC[C@@H](C(=O)N[C@@H](CCN)C(=O)NCCCCCCCCCCC(=O)O)NC(=O)[C@H](CN)NC(=O)[C@H](C(C)O)NC(=O)[C@H](CC2CCCCC2)NC(=O)[C@H](CCN)NC(=O)[C@@H](CC(C)C)NC(=O)[C@H](CCCN)NC(=O)[C@H](Cc2ccc(O)cc2)NC(=O)[C@H](Cc2ccc(-c3ccccc3)cc2)NC1=O (stereo partly drawn) [Compound 3658] ({CH2CO}-[Dap]Y(Carboxymethyl)DWL[Bip]Y[Orn][dL][Dab][Cha][Thr(3ξ)][Dap]C[Dab][Aun]-OH; thioether N-14) | 0.088 µM
Cc1cccc(C[C@@H]2NC(=O)[C@H](CC(=O)O)NC(=O)[C@H](Cc3ccc(OCC(=O)O)cc3)NC(=O)[C@H](CN)NC(=O)CSC[C@@H](C(=O)N[C@H](CC(N)=O)C(=O)NCCCCCCCCCCC(=O)O)NC(=O)[C@H](CO)NC(=O)[C@H](C(C)O)NC(=O)[C@H](CC3CCCCC3)NC(=O)[C@H](CCN)NC(=O)[C@@H](CC(C)C)NC(=O)[C@H](CCCN)NC(=O)[C@H](Cc3ccc(OCC(=O)O)cc3)NC(=O)[C@H](Cc3ccc(-c4ccccc4)cc3)NC(=O)[C@H](Cc3ccc(OCC(=O)O)cc3)NC2=O)c1 (stereo partly drawn) [Compound 3659] ({CH2CO}-[Dap]Y(Carboxymethyl)D[Phe(3-Me)]Y(Carboxymethyl)[Bip]Y(Carboxymethyl)[Orn][dL][Dab][Cha][Thr(3ξ)]SC[dN][Aun]-OH; thioether N-14) | 0.0476 µM
Cc1cccc(C[C@@H]2NC(=O)[C@H](CC(=O)O)NC(=O)[C@H](Cc3ccc(OCC(=O)O)cc3)NC(=O)[C@H](CCN)NC(=O)CSC[C@@H](C(=O)N[C@H](CC(N)=O)C(=O)NCCCCCCCCCCC(=O)O)NC(=O)[C@H](CO)NC(=O)[C@H](C(C)O)NC(=O)[C@H](CC3CCCCC3)NC(=O)[C@H](CCN)NC(=O)[C@@H](CC(C)C)NC(=O)[C@H](CCCN)NC(=O)[C@H](Cc3ccc(OCC(=O)O)cc3)NC(=O)[C@H](Cc3ccc(-c4ccccc4)cc3)NC(=O)[C@H](Cc3ccc(OCC(=O)O)cc3)NC2=O)c1 (stereo partly drawn) [Compound 3660] ({CH2CO}-[Dab]Y(Carboxymethyl)D[Phe(3-Me)]Y(Carboxymethyl)[Bip]Y(Carboxymethyl)[Orn][dL][Dab][Cha][Thr(3ξ)]SC[dN][Aun]-OH; thioether N-14) | 0.0679 µM
CC(C)C[C@H]1NC(=O)[C@H](CCCN)NC(=O)[C@H](C(C)C)NC(=O)[C@H](Cc2ccc(-c3ccccc3)cc2)NC(=O)[C@H](C(C)C)NC(=O)[C@H](Cc2c[nH]c3ccccc23)NC(=O)[C@H](CC(=O)O)NC(=O)[C@H](Cc2ccc(OCC(=O)O)cc2)NC(=O)[C@H](C(C)O)NC(=O)CSC[C@@H](C(=O)N[C@@H](CCN)C(=O)NCCCCCCCCCCC(=O)O)NC(=O)[C@H](CN)NC(=O)[C@H](C(C)O)NC(=O)[C@H](CC2CCCCC2)NC(=O)[C@H](CCN)NC1=O (stereo partly drawn) [Compound 3661] ({CH2CO}-[Thr(3ξ)]Y(Carboxymethyl)DWV[Bip]V[Orn][dL][Dab][Cha][Thr(3ξ)][Dap]C[Dab][Aun]-OH; thioether N-14) | 0.0358 µM
CC(C)C[C@H]1NC(=O)[C@H](CCCN)NC(=O)[C@H](C(C)C)NC(=O)[C@H](Cc2ccc(-c3ccccc3)cc2)NC(=O)[C@H](C(C)C)NC(=O)[C@H](Cc2c[nH]c3ccccc23)NC(=O)[C@H](CC(=O)O)NC(=O)[C@H](Cc2ccc(OCC(=O)O)cc2)NC(=O)[C@H](C(C)O)NC(=O)CSC[C@@H](C(=O)N[C@@H](CCN)C(=O)NCCOCCOCC(=O)N[C@@H](CCC(=O)NCCCCCCCCCCC(=O)O)C(=O)O)NC(=O)[C@H](CN)NC(=O)[C@H](C(C)O)NC(=O)[C@H](CC2CCCCC2)NC(=O)[C@H](CCN)NC1=O (stereo partly drawn) [Compound 3662] ({CH2CO}-[Thr(3ξ)]Y(Carboxymethyl)DWV[Bip]V[Orn][dL][Dab][Cha][Thr(3ξ)][Dap]C[Dab][AEEA][γGlu][Aun]-OH; thioether N-14) | 0.0151 µM
CC(C)C[C@H]1NC(=O)[C@H](CCCN)NC(=O)[C@H](C(C)C)NC(=O)[C@H](Cc2ccc(-c3ccccc3)cc2)NC(=O)[C@H](C(C)C)NC(=O)[C@H](Cc2c[nH]c3ccccc23)NC(=O)[C@H](CC(=O)O)NC(=O)[C@H](Cc2ccc(OCC(=O)O)cc2)NC(=O)[C@H](C(C)O)NC(=O)CSC[C@@H](C(=O)N[C@@H](CCN)C(=O)NCCOCCOCC(=O)N[C@@H](CCC(=O)NCCCCCCCCCCC(=O)O)C(=O)O)NC(=O)[C@H](CCCCN)NC(=O)[C@H](C(C)O)NC(=O)[C@H](CC2CCCCC2)NC(=O)[C@H](CCN)NC1=O (stereo partly drawn) [Compound 3663] ({CH2CO}-[Thr(3ξ)]Y(Carboxymethyl)DWV[Bip]V[Orn][dL][Dab][Cha][Thr(3ξ)]KC[Dab][AEEA][γGlu][Aun]-OH; thioether N-14) | 0.0153 µM
CC(C)C[C@H]1NC(=O)[C@H](CCCN)NC(=O)[C@H](C(C)C)NC(=O)[C@H](Cc2ccc(-c3ccccc3)cc2)NC(=O)[C@H](C(C)C)NC(=O)[C@H](Cc2c[nH]c3ccccc23)NC(=O)[C@H](CC(=O)O)NC(=O)[C@H](Cc2ccc(OCC(=O)O)cc2)NC(=O)[C@H](C(C)O)NC(=O)CSC[C@@H](C(=O)N[C@@H](CCN)C(=O)NCCCCCCCCCCC(=O)O)NC(=O)[C@H](CO)NC(=O)[C@H](C(C)O)NC(=O)[C@H](CC2CCCCC2)NC(=O)[C@H](CCN)NC1=O (stereo partly drawn) [Compound 3664] ({CH2CO}-[Thr(3ξ)]Y(Carboxymethyl)DWV[Bip]V[Orn][dL][Dab][Cha][Thr(3ξ)]SC[Dab][Aun]-OH; thioether N-14) | 0.0277 µM
CC(C)C[C@H]1NC(=O)[C@H](CCCN)NC(=O)[C@H](C(C)C)NC(=O)[C@H](Cc2ccc(-c3ccccc3)cc2)NC(=O)[C@H](C(C)C)NC(=O)[C@H](Cc2c[nH]c3ccccc23)NC(=O)[C@H](CC(=O)O)NC(=O)[C@H](Cc2ccc(OCC(=O)O)cc2)NC(=O)[C@H](C(C)O)NC(=O)CSC[C@@H](C(=O)N[C@@H](CCN)C(=O)NCCCCCCCCCCC(=O)O)NC(=O)[C@H](Cc2cnc[nH]2)NC(=O)[C@H](C(C)O)NC(=O)[C@H](CC2CCCCC2)NC(=O)[C@H](CCN)NC1=O (stereo partly drawn) [Compound 3665] ({CH2CO}-[Thr(3ξ)]Y(Carboxymethyl)DWV[Bip]V[Orn][dL][Dab][Cha][Thr(3ξ)]HC[Dab][Aun]-OH; thioether N-14) | 0.0232 µM
CC(C)C[C@H]1NC(=O)[C@H](CCCN)NC(=O)[C@H](C(C)C)NC(=O)[C@H](Cc2ccc(-c3ccccc3)cc2)NC(=O)[C@H](C(C)C)NC(=O)[C@H](Cc2c[nH]c3ccccc23)NC(=O)[C@H](CC(=O)O)NC(=O)[C@H](Cc2ccc(OCC(=O)O)cc2)NC(=O)[C@H](C(C)O)NC(=O)CSC[C@@H](C(=O)N[C@@H](CCN)C(=O)NCCCCCCCCCCC(=O)O)NC(=O)[C@H](CO)NC(=O)[C@H](CCCCN)NC(=O)[C@H](CC2CCCCC2)NC(=O)[C@H](CCN)NC1=O (stereo partly drawn) [Compound 3666] ({CH2CO}-[Thr(3ξ)]Y(Carboxymethyl)DWV[Bip]V[Orn][dL][Dab][Cha]KSC[Dab][Aun]-OH; thioether N-14) | 0.032 µM
